Like-named read-outs stand apart in the source and are kept apart here.
Legend:
A549 cell line = assay: Proliferation of A549 (CellTiter Glo); format: cell-based; conditions: Homo sapiens, A549, 96 h, read-out: IC50 μM (A549 Cell Line)
Method in brief: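 Compound effect on proliferation was read as CellTiter Glo luminescence after 96 h exposure to a 3-fold dilution series (≤0.25% DMSO). A549 cells, which carry activating K-Ras, were plated at 1,000/well one day before dosing. IC50, relative IC50 and maximal inhibition were fitted from % inhibition versus DMSO control.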

Mino (Lymphoma) = assay: Proliferation of Mino; format: cell-based; conditions: for IC50: Homo sapiens, MINO, read-out: IC50 Mino (Lymphoma)
Method in brief: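 Luminescent ATP read-out (CellTiter Glo) after 96 h compound exposure gave % inhibition relative to DMSO-treated cells, from which IC50 was fitted. Seeding densities were line-specific, from 800 to 10000 cells/well. Potency across batches was normalised to reference compound K101.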

Namalwa (Lymphoma) = assay: Proliferation of Namalwa; format: cell-based; conditions: for IC50: read-out: IC50 Namalwa (Lymphoma)
Method in brief: (§1)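 Panc2.13 was seeded at 3000 cells/well, KP-4 at 800-1000, HL-60 at 5000 and Namalwa at 5000-10000, then given 3-fold serial dilutions of compound with final DMSO ≤0.25% for 96 h at 37° C. CellTiter Glo luminescence was read and inhibition calculated against DMSO-only wells. IC50 was normalised to comparator K101.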

Hela cells = assay: In vitro scratch wound healing assay; format: cell-based; conditions: 24h
Method: Scratch wound healing assay creates a gap by scratching a confluent monolayer of cells to mimic a wound and then measures the ability of cells to fill up the gap (wound) in the presence of DMSO or test compounds. 1.2-1.5×10^5 Hela cells in 1 mL media RPMI-1640 with 10% FBS were seeded in 24-well plates. Cells were starved for overnight in the same media without FBS when cells became confluent. After starvation, a scratch was made in the middle of the well and the plates were washed three times to remove detached cells. DMSO or different concentrations of compounds were diluted and added to the cells. The assay plates were put into Incucyte S3 and scanned with 4× scanner setting regularly. The imaging results were exported and the wound area was analyzed by ImageJ. Wound healing or closure was calculated by the following formula: wound healing %=(wound area at 0h−wound area at 24h)/wound area 0h*100%. Relative wound healing was calculated by dividing wound healing % of compound treatment to that of DMSO*100%.

KP-4 (Pancreatic) = assay: Proliferation of KP-4; format: cell-based; conditions: read-out: IC50 KP-4 (Pancreatic)
Method in brief: as §1

Panc2.13 (Pancreatic) = assay: Proliferation of Panc2.13; format: cell-based; conditions: for IC50: read-out: IC50 Panc2.13 (Pancreatic)
Method in brief: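 Cells seeded per line (KP-4 800-1000, Panc2.13 3000, Namalwa and Mino 5000-10000 cells/well), 24 h at 37° C, then 96 h with 3-fold serial dilutions of compound, final DMSO ≤0.25%. CellTiter Glo luminescence read; % inhibition vs DMSO-only max, IC50 fitted. Potency also normalized as ratio to comparator K101 across batches.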

HL-60 (Leukemia) = assay: Proliferation of HL-60; format: cell-based; conditions: for IC50: Homo sapiens, HL-60, read-out: IC50 HL-60 (Leukemia)
Panc2.13 tumors = assay: Panc2.13 xenograft model, intra-tumoral injection; format: in vivo, mouse; conditions: for tumor clearance: end of efficacy study, three mice per group, seven daily IT injections; for Tumor growth inhibition T/C: Day 45, seven daily IT injections, Nu/Nu mice
Method: Immunodeficient (athymic) Nu/Nu mice were implanted at one flank subcutaneously with Panc2.13 pancreatic cancer cells. […] All groups tolerated drug treatments very well. […] Scabs formed after 1-2 weeks and the skin recovered with minimal scaring after 3-4 weeks. Tumor growth/re-growth on or near the injection site was monitored for up to 55 days. […] Tumor growth inhibition is calculated by dividing the group average tumor volume for the treated group by the group average tumor volume for the control group (TIC). A one-way ANOVA was performed to compare tumor volume among groups, and when a significant F-statistics (a ratio of treatment variance to the error variance) was obtained, comparisons between groups were carried out with Games-Howell test. All data were analyzed using GraphPad 5.0. P<0.05 was considered to be statistically significant.
A Mann-Whitney method was performed to analyze the tumor clearance rate comparing drug treated groups with the vehicle group at the end of the efficacy study. P<0.05 was considered to be statistically significant. Vehicle-injected tumors kept growing and there was no tumor clearance at the end point.

SMILES	IC50 (A549 cell line) [µM]	ratio (IC50 of K101)/(IC50 of compound) Mino (Mino (Lymphoma))	IC50 (Mino (Lymphoma)) [nM]	ratio (IC50 of K101)/(IC50 of compound) Namalwa (Namalwa (Lymphoma))	IC50 (Namalwa (Lymphoma)) [nM]	Relative wound healing to control (%) (Hela cells; 3 nM)	Relative wound healing to control (%) (Hela cells; 10 nM)	Relative wound healing to control (%) (Hela cells; 30 nM)	IC50 (KP-4 (Pancreatic)) [nM]	ratio (IC50 of K101)/(IC50 of compound) Panc2.13 (Panc2.13 (Pancreatic))	IC50 (Panc2.13 (Pancreatic)) [nM]	ratio (IC50 of K101)/(IC50 of compound) HL-60 (HL-60 (Leukemia))	IC50 (HL-60 (Leukemia)) [nM]	tumor clearance (Panc2.13 tumors)	Relative wound healing to control (%) (Hela cells; 100 nM)	Relative wound healing to control (%) (Hela cells; 300 nM)	IC50 (KP-4 (Pancreatic); 96 h) [nM]	IC50 (Panc2.13 (Pancreatic); 96 h) [nM]	Tumor growth inhibition T/C (Panc2.13 tumors)
CC1=C[C@H]2[C@@]3(O)[C@H](C)C[C@]4(OC(=O)[C@@H](N)CCCCCCc5ccccc5)[C@H]([C@@H]3C=C(CO)C[C@]2(O)C1=O)C4(C)C	0.001 to 0.01	52.2	1 to 10	16.1	1 to 10	162	237	267	1 to 10	57.3	10 to 30	12.1	1 to 10	one out of three	–	–	–	–	–
CC1=C[C@H]2[C@@]3(O)[C@H](C)C[C@]4(OC(=O)[C@@H](N)C5Cc6ccccc6C5)[C@H]([C@@H]3C=C(CO)C[C@]2(O)C1=O)C4(C)C	0.06 to 0.1	5.5	10 to 30	1.6	30 to 60	–	–	210	–	5.82	100 to 200	1.79	30 to 60	–	248	238	100 to 600	–	–
CC1=C[C@H]2[C@@]3(O)[C@H](C)C[C@]4(OC(=O)[C@@H](N)CC5CCCCC5)[C@H]([C@@H]3C=C(CO)C[C@]2(O)C1=O)C4(C)C	0.06 to 0.1	7.33	1 to 10	2.03	30 to 60	–	–	123	100 to 200	7.1	100 to 200	2.32	30 to 60	–	351	287	–	–	–
CC1=C[C@H]2[C@@]3(O)[C@H](C)C[C@]4(OC(=O)[C@H](N)CCCCCCc5ccccc5)[C@H]([C@@H]3C=C(CO)C[C@]2(O)C1=O)C4(C)C	0.01 to 0.03	21.3	1 to 10	4.93	10 to 30	–	221	239	30 to 60	13.4	–	4.43	10 to 30	–	263	–	–	100 to 600	0
CC1=C[C@H]2[C@@]3(O)[C@H](C)C[C@]4(OC(=O)[C@@H](N)[C@]56C[C@H]7C[C@H](C[C@H](C7)C5)C6)[C@H]([C@@H]3C=C(CO)C[C@]2(O)C1=O)C4(C)C	0.001 to 0.01	52.2	1 to 10	18.2	1 to 10	191	198	272	1 to 10	71.7	10 to 30	16.2	1 to 10	two out of three	–	–	–	–	3.3
